In PubChem BioAssay AID1645863 (Buhrlage Lab, Dana-Farber Cancer Institute and Novartis …, 2021):
Activity calls are given as the source filed them. No rule for the calls is given here.

The molecules below were run against Ubiquitin carboxyl-terminal hydrolase 10 (Homo sapiens) (UniProt Q14694) (assay: primary hit verification, biochemical, ubiquitin-specific protease 10 deubiquitylase inhibitors, concentration-effect titration (AID 1645863;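 also: potency values describe inhibition of USP10 cleavage of a fluorogenic ubiquitin substrate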)). Conditions: USP10 deubiquitinase enzymatic assay.
Chain of Ubiquitin carboxyl-terminal hydrolase 10 (Homo sapiens) (Q14694 whole entry, looked up): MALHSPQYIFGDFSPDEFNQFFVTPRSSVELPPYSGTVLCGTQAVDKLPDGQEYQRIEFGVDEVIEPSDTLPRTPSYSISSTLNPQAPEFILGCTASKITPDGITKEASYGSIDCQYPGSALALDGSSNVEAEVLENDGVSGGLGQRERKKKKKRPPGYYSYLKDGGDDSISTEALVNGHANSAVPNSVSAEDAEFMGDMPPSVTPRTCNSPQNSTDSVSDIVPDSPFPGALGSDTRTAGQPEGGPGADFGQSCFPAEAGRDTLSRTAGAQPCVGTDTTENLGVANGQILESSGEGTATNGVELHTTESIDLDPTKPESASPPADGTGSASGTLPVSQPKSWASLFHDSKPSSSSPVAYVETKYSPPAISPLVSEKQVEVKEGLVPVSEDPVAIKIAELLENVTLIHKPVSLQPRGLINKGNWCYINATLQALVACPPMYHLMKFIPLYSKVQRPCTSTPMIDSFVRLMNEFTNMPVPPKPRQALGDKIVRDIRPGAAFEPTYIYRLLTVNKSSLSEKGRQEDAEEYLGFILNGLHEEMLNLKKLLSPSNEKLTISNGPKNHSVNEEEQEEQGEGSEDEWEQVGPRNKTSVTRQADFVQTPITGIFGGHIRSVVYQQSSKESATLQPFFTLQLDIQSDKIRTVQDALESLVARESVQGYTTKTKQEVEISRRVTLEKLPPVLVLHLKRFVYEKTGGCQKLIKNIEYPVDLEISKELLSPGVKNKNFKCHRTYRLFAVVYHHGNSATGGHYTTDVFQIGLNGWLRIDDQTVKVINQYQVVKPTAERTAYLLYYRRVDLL

Row | SMILES | IC50
1 | Cn1cc(NC(=O)Nc2cccc3ccccc23)c2ccccc21 | > 40 µM (inactive)
2 | COc1ccccc1C(=O)Nc1ccc(-c2nc3ccccc3o2)c(O)c1 | > 40 µM (inactive)
3 | CCOc1ccc(-c2nc(SCC(=O)Nc3cccc(C)c3)n3[nH]c(=O)cc3n2)cc1 | > 40 µM (inactive)
4 | O=C(CCCc1nnc2c(=O)n(-c3cccc(F)c3)ccn12)Nc1ccccc1 | > 40 µM (inactive)
5 | CCCCOc1ccc(-c2cc3n(c(=N)c2C#N)CCc2cc4c(cc2-3)OCCCO4)cc1OC | > 40 µM (inactive)
6 | O=C(NCCN1CCOCC1)c1cn2cc(Cl)ccc2n1 | > 40 µM (inactive)
7 | Cc1ccccc1-c1nc(-c2cn(CC(=O)Nc3ccccc3)cn2)no1 | > 40 µM (inactive)
8 | COc1cccc(NC(=O)c2cnc(N3CCCC3)nc2C)c1 | > 40 µM (inactive)
9 | Cc1nc(-c2noc(-c3cccc(F)c3)n2)cn1CC(=O)Nc1ccccc1 | 15.8 µM
10 | CSCCC(NC(=O)c1ccccc1)c1nc2ccccc2n1CC(=O)Nc1ccccc1 (configuration not stated) | 35.9 µM
11 | NC(=O)c1ccccc1NC(=O)COc1ccc2c(c1)oc(=O)c1ccccc12 | 5.75 µM
12 | O=C(CCn1c(=O)c2ccccc2n(Cc2ccc(F)cc2Cl)c1=O)NCc1ccco1 | 27.6 µM
13 | O=C(Cn1c(=O)n(Cc2ccccc2)c(=O)c2ncccc21)NCc1ccccc1Cl | > 40 µM (inactive)
14 | COC(=O)c1ccccc1NC(=O)CSc1nnc(CNc2ccc(F)cc2)n1CC1CCCO1 (configuration not stated) | > 40 µM (inactive)
15 | CCOc1ccccc1-c1cc(NC(=O)c2cc3ccc4cccnc4c3[nH]2)on1 | > 40 µM (inactive)
16 | O=C(c1ccncc1)N1CCN(CC2CC=CCC2)CC1 (configuration not stated) | > 40 µM (inactive)
17 | O=C(c1ccc2c(c1)OCO2)[C@@H]1[C@H](C(=O)OC(c2ccccc2)c2ccccc2)N2c3ccccc3C=CC2[C@@]12C(=O)Nc1ccccc12 (some centres not stated) | > 40 µM (inactive)
18 | COc1cc(Cl)c(NC(=O)C2Cc3ccccc3N2C(=O)c2ccccc2)c(OC)c1 (configuration not stated) | 26.9 µM
19 | CCc1cccc(NC(=O)Cc2nnc3ccc(-c4nc(C)no4)cn23)c1 | > 40 µM (inactive)
20 | COc1c(C)c(C(O)C(C)O)c2[nH]c3ccc(CC=C(C)C)cc3c2c1O (configuration not stated) | > 40 µM (inactive)
21 | C=C/C(=C/C(=O)C[C@H](C)C[C@@H](C)CC[C@H](O)[C@H](C)C(=O)CC(O)[C@H](C)[C@@H](C)OC(=O)C[C@@H](O)C1=C(C)C(=O)OC1=O)CC (some centres not stated) | 9.16 µM
22 | O=C(O)C1C(C(=O)Nc2ccccc2)C2(c3ccccc3)C(=O)C1(c1ccccc1)C(c1ccccc1)=C2c1ccccc1 (configuration not stated) | 4.25 µM
23 | COc1ccc(Oc2cc3n(c(=O)n2)CCc2cc(OC)c(OC)cc2-3)cc1 | > 40 µM (inactive)
24 | Cc1ccc2nc(NC(=O)/C=C/c3ccc4c(c3)OCO4)sc2c1 | 15.1 µM

Row | SMILES | IC50
25 | O=C(CCn1c(=O)c2ccccc2n(CC(=O)OCc2ccccc2)c1=O)NCc1ccc2c(c1)OCO2 | 17.5 µM
26 | CCC(=O)Nc1nc2cc(NC(=O)Nc3cccc(C)c3)ccc2s1 | 18.8 µM
27 | COc1cc(-c2ccccc2)c(O)c(O)c1-c1ccccc1 | 14 µM
28 | N#Cc1ccc(NC(=O)Nc2cccn(Cc3c(F)cccc3Cl)c2=O)cc1 | > 40 µM (inactive)
29 | O=C(Nc1ccccc1Cl)c1cc(-c2ccncc2)n[nH]1 | > 40 µM (inactive)
30 | O=C(/C=C/c1ccco1)N1CCC(Cn2cccn2)CC1 | > 40 µM (inactive)
31 | COc1ccc(NC(=O)CC(=O)c2ccc([N+](=O)[O-])cc2)cc1S(=O)(=O)Nc1ccc(Cl)cc1 | 25.8 µM
32 | O=C(Nc1ccccc1Cc1ccccc1)c1nc2n(n1)-c1ccccc1S(=O)(=O)N2 | 25.3 µM
33 | COc1ccc(Cl)cc1NC(=O)CSc1ncnc2nc[nH]c12 | 37.9 µM
34 | COc1ccc(CNC(=O)Cn2c(=O)[nH]c3c(-c4ccccc4F)c[nH]c3c2=O)cc1 | > 40 µM (inactive)
35 | COc1ccc(OC)c2c(C)cc(N3CC(C)CC(C)C3)nc12 (configuration not stated) | > 40 µM (inactive)
36 | O=C(Cn1nc2c3c4c(sc3ncn2c1=O)CCCCC4)Nc1ccc(Cl)cc1F | 10.9 µM
37 | Cc1ccc2[nH]c(=O)c(-c3nc4ccccn4c3NCc3ccccc3)cc2c1 | 23.7 µM
38 | COc1ccc(CC(=O)OCC(=O)N2c3ccccc3NC(=O)C2(C)C)cc1 | > 40 µM (inactive)
39 | Cc1ccccc1-c1noc(-c2ccccc2OCC(=O)NC(C)C)n1 | > 40 µM (inactive)
40 | CCOc1ccc2[nH]c(=O)c(-c3nc4ccc(C)cn4c3NCc3ccccc3)cc2c1 | > 40 µM (inactive)
41 | Cc1nn(-c2ccccc2)c2c1nc(CCC(=O)NC1CCCCC1)c(=O)n2C | > 40 µM (inactive)
42 | COc1ccccc1/C=C/C(=O)NC(Cc1ccccc1)c1nc2ccccc2[nH]1 (configuration not stated) | > 40 µM (inactive)
43 | Cc1cccc(N2C(=O)/C(=C\c3ccc4c(c3)OCCO4)c3ccccc3C2=O)c1 | > 40 µM (inactive)
44 | COc1cc(OC)cc(N2C(=O)N(CC(=O)c3ccc(Br)cc3)c3ccccc3S2(=O)=O)c1 | 13.8 µM
45 | COCC(=O)N1CCC(n2c(C3CC3)nc3sc(C)c(C)c3c2=O)CC1 | > 40 µM (inactive)
46 | CCCCCCCc1cc(OC(=O)c2c(CCCCCCC)cc(O)cc2O[C@@H]2O[C@H](CO)[C@H](O)[C@H](O)[C@H]2O)cc(O)c1C(=O)O | 5.17 µM
47 | CCCCCCCCCC(CCCCCCCCCC(=O)O)O[C@H]1O[C@@H](COC(C)=O)[C@H](O)[C@@H](O)[C@H]1OC(=O)CC(=O)O (some centres not stated) | 29.4 µM
